Assay results published in patent US20260042762A1 (Kymera Therapeutics, Inc., priority 2018, published 2026).
Where a name gives a salt, the structure may show the parent alone.

molecular target: T1, MerTK (Homo sapiens, UniProt Q12866); assay: MerTk degradation in Jurkat cells (Western blot); type: cell-based; details: 0.001-1 μM, 4 hour-incubation at 37° C.
T1 construct: endogenous in cells; host or cells: Jurkat cells
T1 sequence (Q12866 21-999): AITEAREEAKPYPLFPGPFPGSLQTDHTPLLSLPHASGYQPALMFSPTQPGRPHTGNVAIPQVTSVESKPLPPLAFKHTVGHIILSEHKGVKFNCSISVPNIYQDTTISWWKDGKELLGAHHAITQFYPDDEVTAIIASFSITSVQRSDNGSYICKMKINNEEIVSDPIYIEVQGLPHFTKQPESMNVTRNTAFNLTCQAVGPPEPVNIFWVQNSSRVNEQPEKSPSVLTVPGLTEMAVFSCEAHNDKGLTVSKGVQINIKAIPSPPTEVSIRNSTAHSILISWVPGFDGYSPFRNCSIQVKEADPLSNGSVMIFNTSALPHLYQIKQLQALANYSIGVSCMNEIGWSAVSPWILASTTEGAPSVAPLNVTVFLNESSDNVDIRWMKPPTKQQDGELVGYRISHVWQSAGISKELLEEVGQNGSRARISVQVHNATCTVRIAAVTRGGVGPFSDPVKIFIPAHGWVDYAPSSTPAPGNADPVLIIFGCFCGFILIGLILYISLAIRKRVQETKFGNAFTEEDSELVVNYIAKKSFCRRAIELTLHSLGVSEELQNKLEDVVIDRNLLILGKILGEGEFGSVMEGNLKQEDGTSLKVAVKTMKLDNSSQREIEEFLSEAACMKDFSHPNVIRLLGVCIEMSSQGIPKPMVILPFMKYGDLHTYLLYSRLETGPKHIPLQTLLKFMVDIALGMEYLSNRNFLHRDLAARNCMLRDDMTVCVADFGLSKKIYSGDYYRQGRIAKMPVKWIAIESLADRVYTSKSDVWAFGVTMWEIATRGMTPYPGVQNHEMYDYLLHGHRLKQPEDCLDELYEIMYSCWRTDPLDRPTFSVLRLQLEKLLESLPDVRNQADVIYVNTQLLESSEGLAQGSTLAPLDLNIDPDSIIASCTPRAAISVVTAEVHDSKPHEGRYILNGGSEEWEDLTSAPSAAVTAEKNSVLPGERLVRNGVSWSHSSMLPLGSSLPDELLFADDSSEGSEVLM
Outline: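 Jurkat cells treated 4 h at 37 °C with compound at 0.001-1 μM final. RIPA lysates quantified by BCA, then MerTK probed by Western blot against actin loading control with IR-dye secondaries and Odyssey imaging.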

Question: How did the “Jurkat Max % MerTK Degradation” value turn out when `C[C@H](CC(F)(F)F)Nc1ncc2c(-c3ccc(CN4CCN(CCCO[C@H]5CCN(Cc6ccc7c(c6)n(C)c(=O)n7C6CCC(=O)NC6=O)C5)CC4)cc3)cn([C@H]3CC[C@H](O)CC3)c2n1` (stereo partly shown) [I-198] was run?
Answer: The value was “A (maximum MerTK degradation greater than 50%)”.

same assay, conditions: Jurkat, 4 h, 0.001-1 μM, 4 hour-incubation at 37° C., read-out: Jurkat Max % MerTK Degradation

Question: How did the Dmax turn out when `CCC[C@H](C)Nc1ncc2c(n1)n([C@H]1CC[C@H](O)CC1)cc2[C@H]1CC[C@H](CN2CCN(CCCOC3CN(Cc4ccc5c(c4)n(C)c(=O)n5C4CCC(=O)NC4=O)C3)CC2)CC1` (stereo partly drawn) [I-223, 3-[3-methyl-2-oxo-5-([3-[3-(4-[[trans-4-[2-[(2S)-pentan-2-ylamino]-7-[trans-4-hydroxycyclohexyl]pyrrolo[2,3-d]pyrimidin-5-yl]cyclohexyl]methyl]piperazin-1-y1)propoxy]azetidin-1-yl]methyl)-1,3-benzodiazol-1-yl]piperidine-2,6-dione] was run?
Answer: The Dmax was 20 to 50%.

Question: For `Cn1c(=O)n([C@H]2CCC(=O)NC2=O)c2ccc(CCCOCCCCN3CCN(Cc4ccc(-c5cn([C@H]6CC[C@H](O)CC6)c6nc(NCCC(F)(F)F)ncc56)cc4)CC3)cc21` [I-79, 3-[3-methyl-2-oxo-5-[3-(4-[4-[(4-[7-[trans-4-hydroxycyclohexyl]-2-[(3,3,3-trifluoropropyl)amino]-7H-pyrrolo[2,3-d]pyrimidin-5-yl]phenyl)methyl]piperazin-1-yl]butoxy)propyl]-2,3-dihydro-1H-1,3-benzodiazol-1-yl]piperidine-2,6-dione; formic acid], which Dmax is on record?
Answer: Its Dmax is over 50%.

Question: How did the Dmax turn out when `CCCCNc1ncc2c(-c3ccc(CNCCCc4ccc5c(c4)n(C)c(=O)n5[C@H]4CCC(=O)NC4=O)cc3)cn([C@H]3CC[C@H](O)CC3)c2n1` [I-46, 3-(5-[3-[([4-[2-(butylamino)-7-[trans-4-hydroxycyclohexyl]-7H-pyrrolo[2,3-d]pyrimidin-5-yl]phenyl]methyl)amino]propyl]-3-methyl-2-oxo-2,3-dihydro-1H-1,3-benzodiazol-1-yl)piperidine-2,6-dione; formic acid] was run?
Answer: Its Dmax is over 50%.

Question: `Cn1c(=O)n([C@H]2CCC(=O)NC2=O)c2ccc(CCCOCCCN3CCN(Cc4ccc(-c5cn([C@H]6CC[C@H](O)CC6)c6nc(NCC(F)F)ncc56)cc4)CC3)cc21` [I-100, 3-[5-[3-(3-[4-[(4-[2-[(2,2-difluoroethyl)amino]-7-[trans-4-hydroxycyclohexyl]-7H-pyrrolo[2,3-d]pyrimidin-5-yl]phenyl)methyl]piperazin-1-yl]propoxy)propyl]-3-methyl-2-oxo-2,3-dihydro-1H-1,3-benzodiazol-1-yl]piperidine-2,6-dione; formic acid] was tested. Which Dmax did it give?
Answer: Its Dmax is over 50%.

Question: With `CCCCNc1ncc2c(-c3ccc(CNCCCC(=O)N(C)CCOCCCc4ccc5c(c4)n(C)c(=O)n5[C@H]4CCC(=O)NC4=O)cc3)cn([C@H]3CC[C@H](O)CC3)c2n1` [I-67, 4-[([4-[2-(butylamino)-7-[trans-4-hydroxycyclohexy1]-7H-pyrrolo[2,3-d]pyrimidin-5-yl]phenyl]methyl)amino]-N-(2-[3-[1-(2,6-dioxopiperidin-3-y1)-3-methyl-2-oxo-2,3-dihydro-1H-1,3-benzodiazol-5-yl]propoxy]ethyl)-N-methylbutanamide; formic acid] as the compound, how does the Dmax read?
Answer: Its Dmax is over 50%.

Question: With `CC(c1ccc(-c2cn([C@H]3CC[C@H](O)CC3)c3nc(NCCC(F)(F)F)ncc23)cc1)N1CCN(CCCOCCCc2ccc3c(c2)n(C)c(=O)n3C2CCC(=O)NC2=O)CC1` (stereo partly drawn) [I-80, 3-[3-methyl-2-oxo-5-[3-(3-[4-[1-(4-[7-[trans-4-hydroxycyclohexyl]-2-[(3,3,3-trifluoropropyl)amino]-7H-pyrrolo[2,3-d]pyrimidin-5-yl]phenyl)ethyl]piperazin-1-yl]propoxy)propyl]-2,3-dihydro-1H-1,3-benzodiazol-1-yl]piperidine-2,6-dione] as the compound, how does the Dmax read?
Answer: The Dmax was over 50%.

Question: Which Dmax does the source give for `CCC[C@H](C)Nc1ncc2c(-c3ccc(CN4CCN(CCCOC5CCN(Cc6ccc7c(c6)n(C)c(=O)n7C6CCC(=O)NC6=O)CC5)CC4)cc3)cn([C@H]3CC[C@H](O)CC3)c2n1` (stereo partly drawn) [I-189, 3-(3-methyl-2-oxo-5-[[4-(3-[4-[(4-[2-[(2S)-pentan-2-ylamino]-7-[trans-4-hydroxycyclohexyl]pyrrolo[2,3-d]pyrimidin-5-yl]phenyl)methyl]piperazin-1-yl]propoxy)piperidin-1-y1]methyl]-1,3-benzodiazol-1-y1)piperidine-2,6-dione; formic acid] here?
Answer: Its Dmax is over 50%.

Question: For `CCCCNc1ncc2c(n1)n([C@H]1CC[C@H](O)CC1)cc2[C@H]1CC[C@@H](CN2CCN(CCOCCOCCOCCOCCCc3ccc4c(c3)n(C)c(=O)n4[C@H]3CCC(=O)NC3=O)CC2)CC1` [I-89, 3-[3-methyl-2-oxo-5-[1-(4-[[(1s,4s)-4-[2-(butylamino)-7-[trans-4-hydroxycyclohexy1]-7H-pyrrolo[2,3-d]pyrimidin-5-yl]cyclohexyl]methyl]piperazin-1-yl)-3,6,9,12-tetraoxapentadecan-15-yl]-2,3-dihydro-1H-1,3-benzodiazol-1-yl]piperidine-2,6-dione; di(formic acid)], which Dmax is on record?
Answer: The Dmax was over 50%.

Question: For `Cn1c(=O)n([C@H]2CCC(=O)NC2=O)c2ccc(CCCCN3CC(N4CCN(Cc5ccc(-c6cn([C@H]7CC[C@H](O)CC7)c7nc(NCCC(F)(F)F)ncc67)cc5)CC4)C3)cc21` [I-119, 3-[3-methyl-2-oxo-5-[4-(3-[4-[(4-[7-[trans-4-hydroxycyclohexyl]-2-[(3,3,3-trifluoropropyl)amino]-7H-pyrrolo[2,3-d]pyrimidin-5-yl]phenyl)methyl]piperazin-1-yl]azetidin-1-yl)butyl]-2,3-dihydro-1H-1,3-benzodiazol-1-yl]piperidine-2,6-dione; bis(formic acid)], which Dmax is on record?
Answer: Its Dmax is over 50%.

Question: `CCCCNc1ncc2c(-c3ccc(CN4CCN(CCOCCOCCOCCOCCCc5ccc6c(c5)n(C)c(=O)n6[C@H]5CCC(=O)NC5=O)CC4)cc3)cn(C3CCCCC3)c2n1` [I-57, 3-(5-[1-[4-([4-[2-(butylamino)-7-cyclohexy1-7H-pyrrolo[2,3-d]pyrimidin-5-yl]phenyl]methyl)piperazin-1-yl]-3,6,9,12-tetraoxapentadecan-15-y1]-3-methyl-2-oxo-2,3-dihydro-1H-1,3-benzodiazol-1-y1)piperidine-2,6-dione] was tested. Which Dmax did it give?
Answer: The Dmax was over 50%.

Question: `CN1CCN(Cc2ccc(-c3ccc(CO[C@H]4CCC[C@@H]4NC(=O)c4cc(-c5cnn(CCOCCCc6cccc7c6n(C)c(=O)n7C6CCC(=O)NC6=O)c5)cnc4N)cc3)cc2)CC1` (stereo partly drawn) [I-218, 2-Amino-5-[1-(2-[3-[1-(2,6-dioxopiperidin-3-yl)-3-methyl-2-oxo-1,3-benzodiazol-4-yl]propoxy]ethyl)pyrazol-4-yl]-N-[(1S,2S)-2-([4-[(4-methylpiperazin-1-yl)methyl]-[1,1-biphenyl]-4-yl]methoxy)cyclopentyl]pyridine-3-carboxamide] was tested. Which Dmax did it give?
Answer: Its Dmax is under 20%.

Question: For `Cn1c(=O)n([C@H]2CCC(=O)NC2=O)c2cccc(CCCOCCCOCCCNCc3ccc(-c4cn([C@H]5CC[C@H](O)CC5)c5nc(NCCC(F)(F)F)ncc45)cc3)c21` [I-52, 3-(3-methyl-2-oxo-4-[3-[3-(3-[[(4-[7-[trans-4-hydroxycyclohexyl]-2-[(3,3,3-trifluoropropyl)amino]-7H-pyrrolo[2,3-d]pyrimidin-5-yl]phenyl)methyl]amino]propoxy)propoxy]propyl]-2,3-dihydro-1H-1,3-benzodiazol-1-y1)piperidine-2,6-dione hydrochloride], which Dmax is on record?
Answer: The Dmax was over 50%.
